Data as given in US12458643B2, “Antidepressant/anxiolytic drug in which PAC1 receptor antagonist is used” (KAGOSHIMA UNIVERSITY, priority 2020, dated 2025).

Columns and labels:
Format in all cases: in vivo, mouse
[1] = test system: plasma corticosterone level; assay: Repeated corticosterone administration, plasma corticosterone level (ELISA); details: male mice, corticosterone 20 mg/kg s.c. 21 days; single i.p. PA-915 30 mg/kg, ketamine 20 mg/kg; next day
Description: A vehicle (0.5% carboxymethylcellulose solution) or corticosterone (20 mg/kg) was subcutaneously administered (0.1 mL/10 g) to male C57BL/6J mice (7 weeks old) for 21 days. A vehicle (10% DMSO solution; dissolved in saline; n=4), PA-915 (30 mg/kg; n=4) or ketamine (20 mg/kg; n=4) was intraperitoneally administered thereto (0.1 mL/10 g) 3 hours after administration on the 21st day. On the next day, the mice were subjected to the forced swim test and then decapitated, and systemic circulating blood was collected. The plasma corticosterone level was measured using Corticosterone ELISA kit from Cayman Chemical Company. Mice given the vehicle by repeated administration without repeated corticosterone administration were used as a control (n=4). The data was indicated by mean±standard error. **P<0.01 (One-way ANOVA followed by Tukey-Kramer test).

normal mice [2] = assay: Spontaneous motor activity in normal mice (open field test); details: i.p. PA-915 30 mg/kg, ketamine 20 mg/kg, fluoxetine 20 mg/kg, 30 min before vs 30 min after administration
Description: (1) The effects of PA-915, ketamine and the existing drug fluoxetine on normal mice were evaluated by an open field test (test to measure spontaneous locomotion in a novel environment by exploiting the properties of mice to do exploratory behavior in such a novel environment, and using a 45 cm×45 cm box of 30 cm in height).
Male C57BL/6J mice (8 to 12 weeks old) were placed in the box (illuminance: 100 lx) and allowed to freely explore the box for 60 minutes. Then, a vehicle (V: 10% DMSO solution; dissolved in saline; n=8), PA-915 (PA: 30 mg/kg; n=9), ketamine (K: 20 mg/kg; n=8) or fluoxetine (F: 20 mg/kg; n=11) was intraperitoneally administered thereto (0.1 mL/10 g). Spontaneous motor activity was measured by using the total distances traveled for 30 minutes before administration and for 30 minutes after administration as indexes. The data was indicated by mean±standard error. **P<0.01; *P<0.05 (Two-way ANOVA followed by Tukey-Kramer test).

normal mice [3] = assay: Prepulse inhibition (PPI) test in normal mice; details: i.p. PA-915 30 mg/kg, ketamine 20 mg/kg
Description: A vehicle (V: 10% DMSO solution; dissolved in saline; n=13), PA-915 (PA: 30 mg/kg; n=10) or ketamine (K: 20 mg/kg; n=15) was intraperitoneally administered (0.1 mL/10 g) to male C57BL/6J mice (8 to 12 weeks old), which were then acclimatized to 65 dB background noise for 5 minutes in the apparatus. The mice were randomly stimulated 20 times with 50-msec 120 dB startle sound or with 20-msec 73 dB, 77 dB, and 81 dB prepulse sounds and 50-msec 120 dB startle sound 50 msec after each prepulse sound for 30 minutes from the completion of acclimatization. In this respect, the ratio of PPI was calculated according to [(Average startle amplitude without prepulse)−(Average startle amplitude of trial with prepulse)]/(Average startle amplitude without prepulse)×100. The data was indicated by mean±standard error. **P<0.01; *P<0.05 (One-way ANOVA followed by Tukey-Kramer test).

Q: Which “effect on plasma corticosterone level” value [1] does the source give for `CNC1(c2ccccc2Cl)CCCCC1=O` (stereo not drawn) [ketamine] here?
A: decreased the plasma corticosterone level

Q: And the “change in spontaneous motor activity (total distance traveled)” value (normal mice [2])?
A: increase in spontaneous motor activity

Q: And the “influence on prepulse inhibition (PPI ratio)” value (normal mice [3])?
A: caused prepulse inhibition deficits
